Where two headings read alike, the source gives them in different places.
How the values were obtained:
[1] = test system: butanol non-producing bacterial cells; test: Feeding with fatty acids followed by screening for butanol tolerance; assay type: cell-based; details: fed to cells; among about ten different fatty acids tested
Source text: The discovery came from results of studies on feeding butanol non-producing bacterial cells with different fatty acids followed by screening for butanol tolerance.

[2] = test system: Lactobacillus plantarum PN2001; details: shake flask; for PN2001 (cfa1 plasmid) μ: semi-synthetic LAB medium pH7, 30° C; for PN2001, % Growth inhibition: semi-synthetic LAB medium pH7
L. plantarum PN2005 = test: Bioscreen-C growth analysis in MRS medium, PN2005 (cfa2); assay type: cell-based, Lactobacillus plantarum; details: strain PN2005 (cfa2)
Procedure: (§1) For Bioscreen-C (instrument purchased from Growth Curves USA, Piscataway N.J.) growth curves, the cultures were grown overnight in MRS medium containing 1 μg/ml erythromycin at 30° C. The next day, these were diluted to OD600 of 0.1 in the wells of the Bioscreen plate with MRS medium containing 1 μg/ml erythromycin and either 2.25% (w/v) isobutanol or no isobutanol at 30° C.
(§2) L. plantarum strains PN2001, PN2003, PN2005, PN2010, PN2012, and PN2014 were tested for growth in a Bioscreen-C growth curve machine in the presence of isobutanol as described in General Methods. These growth assays were conducted in MRS medium, which contains 1 g/L polysorbate 80 (commercially also known as Tween® 80) that serves as a source of oleic acid. Erythromycin at 1 μg/ml was added to the medium to maintain the plasmids. It is well known that L. plantarum grown in MRS medium incorporates oleic acid into membrane lipids (Johnsson et al. (1995) Appl. Environ. Microbiol. 61:4497-4499).

[3] = test system: Lactobacillus plantarum PN1310; test: Change in OD600 in S36 medium, PN1310 (spoT mutant, vector); assay type: cell-based; details: 3% isobutanol
Source text: (§3) The purpose of this Example was to test the effect of a combination of cfa1 overexpression and spoT mutation on the isobutanol tolerance of Lactobacillus plantarum. To create a strain with both gene modifications, pFP996-atpB-cfa1 (described in Example 1; also called pFP996-1)) was transformed into the MS0280 strain (described in Example 4; also called PN1300) creating strain PN1312. For a control strain, pFP996 (described in Example 1) was transformed into MS0280 creating PN1310. Strain PN1312, which contained a multicopy expression plasmid with cfa1, was compared to strain PN1310, which contained the vector control.
(§4) The growth of the strains over time was followed, and tolerance compared as follows. The strains were cultured in S36 medium (contains 10 mM ammonium sulfate, 5 mM potassium phosphate buffer, pH 6.0, 50 mM MES, pH 6.0, 2 mM MgCl2, 0.7 mM CaCl2, 50 μM MnCl2, 1 μM FeCl3, 1 μM ZnCl2, 1.72 μM CuCl2, 2.53 μM CoCl2, 2.42 μM Na2MoO4, 2 μM thiamine hydrochloride, 0.01 M glucose, 0.2% yeast extract and 0.01% casamino acids) overnight at 30° C. under anaerobic conditions. The next day, cultures were started from the overnight cultures in fresh medium, with initial OD600 values of 0.18. These cultures were incubated at 30° C. under anaerobic conditions for 4 hours. During this time, PN1310 reached an OD600 of 0.83, and PN1312 reach an OD600 of 0.61. […]

[4] = test system: Lactobacillus plantarum PN2001; test: microbe, parasite or virus in culture; details: Lactiplantibacillus plantarum, PN2001, pH 7, read-out: PN2001, % Growth inhibition
L. plantarum PN2003 = test: Bioscreen-C growth analysis in MRS medium, PN2003 (cfa1); assay type: cell-based, Lactobacillus plantarum; details: strain PN2003 (cfa1), 2.25% isobutanol
Procedure: as §1, §2

L. plantarum PN2014 = test: Bioscreen-C growth analysis in MRS medium, PN2014 (control); assay type: cell-based, Lactobacillus plantarum; details: strain PN2014 (no gene on plasmid)
Procedure: as §1, §2

E. coli strain DPD4655 = test: Bioscreen-C growth in LB medium, DPD4655 (cfa overexpression); assay type: cell-based; details: 3 hour and 15 minute time point; for OD600 (+/− st dev): LB medium, 37° C
Procedure: (§5) E. coli strains DPD4655 and DPD4658 were grown overnight in LB medium containing 100 μg/ml ampicillin at 37° C. The next day, these were diluted to OD600 of 0.1 in the wells of a Bioscreen-C plate (instrument and plates purchased from Growth Curves USA, Piscataway N.J.) with LB medium and either 0.4%, 0.8% (w/v) isobutanol or no isobutanol at 37° C. in triplicate. OD was monitored and the OD at the 3 hour and 15 minute time point was used to calculate the % of growth in the presence of isobutanol as compared with its absence, given in Table 15.

E. coli strain DPD4658 = test: Bioscreen-C growth in LB medium, DPD4658 (control lacZ overexpression); assay type: cell-based; details: 3 hour and 15 minute time point; for OD600 (+/− st dev): LB medium, 37° C
Procedure: as §5

[5] = test system: Lactobacillus plantarum PN1312; test: Change in OD600 in S36 medium, PN1312 (spoT mutant, cfa1); assay type: cell-based; details: 3% isobutanol
Source text: as §3, §4

L. plantarum PN2001 = test: Bioscreen-C growth analysis in MRS medium, PN2001 (cfa1); assay type: cell-based, Lactobacillus plantarum; details: strain PN2001 (cfa1)
Procedure: as §1, §2

[6] = test system: Lactobacillus plantarum PN2014; test: microbe, parasite or virus in culture; details: Lactiplantibacillus plantarum, PN2014, pH 7, read-out: PN2014, % Growth inhibition
[7] = test system: Lactobacillus plantarum PN2014; details: shake flask; for PN2014 (control plasmid) μ: semi-synthetic LAB medium pH7, 30° C; for PN2014, % Growth inhibition: semi-synthetic LAB medium pH7
L. plantarum PN2012 = test: Bioscreen-C growth analysis in MRS medium, PN2012 (control); assay type: cell-based, Lactobacillus plantarum; details: strain PN2012 (no gene on plasmid)
Procedure: as §1, §2

L. plantarum PN2010 = test: Bioscreen-C growth analysis in MRS medium, PN2010 (cfa2); assay type: cell-based, Lactobacillus plantarum; details: strain PN2010 (cfa2)
Procedure: as §1, §2

[8] = MRS medium (source of oleic acid), 30° C

CCCCCCCC[C@@H]1C[C@@H]1CCCCCCCC(=O)O [dihydrosterculic acid]
effect of feeding on butanol tolerance [1]: increased butanol tolerance

CC(C)CO [isobutanol]
growth in the presence of isobutanol (FIG. 1A) ([2]; PN2001, 3% isobutanol): grew
PN2001 (cfa1 plasmid) μ ([2]; isobutanol 2.25% w/v): 0.187 h⁻¹
PN2001 (cfa1 plasmid) μ ([2]; isobutanol 2.5% w/v): 0.119 h⁻¹
PN2001 (cfa1 plasmid) μ ([2]; isobutanol 2.75% w/v): 0.104 h⁻¹
PN2001 (cfa1 plasmid) μ ([2]; isobutanol 3.0% w/v): 0.029 h⁻¹
PN2001 (cfa1 plasmid) μ ([2]; isobutanol 3.2% w/v): 0.00 h⁻¹
% Growth inhibition (L. plantarum PN2005; 2.25% isobutanol, MRS medium): 39%
μ (2.25% isobutanol) (L. plantarum PN2005; [8]): 0.31 h⁻¹
inhibited for growth ([3]; PN1310 (vector alone)): 75%
2 h Δ OD ([3]; PN1310 (vector), S36 medium, 30° C, anaerobic): 0.3
inhibition at 2.25 % strength [4]: 46%
inhibition at 2.5 % strength [4]: 66%
inhibition at 2.75 % strength [4]: 70%
inhibition at 3 % strength [4]: 92%
inhibition at 3.2 % strength [4]: 100%
% Growth inhibition (L. plantarum PN2003): 34%
% Growth inhibition (L. plantarum PN2014; 2.25% isobutanol, MRS medium): 42%
μ (2.25% isobutanol) (L. plantarum PN2014; [8]): 0.22 h⁻¹
% OD +isobutanol/−isobutanol (E. coli strain DPD4655; isobutanol 0.4% (w/v)): 72%
OD600 (+/− st dev) (E. coli strain DPD4655; isobutanol 0.4% (w/v)): 0.318 +/− 0.005
% OD +isobutanol/−isobutanol (E. coli strain DPD4655; isobutanol 0.8% (w/v)): 50%
OD600 (+/− st dev) (E. coli strain DPD4655; isobutanol 0.8% (w/v)): 0.220 +/− 0.006
% OD +isobutanol/−isobutanol (E. coli strain DPD4658; isobutanol 0.4% (w/v)): 63%
OD600 (+/− st dev) (E. coli strain DPD4658; isobutanol 0.4% (w/v)): 0.259 +/− 0.004
% OD +isobutanol/−isobutanol (E. coli strain DPD4658; isobutanol 0.8% (w/v)): 42%
OD600 (+/− st dev) (E. coli strain DPD4658; isobutanol 0.8% (w/v)): 0.174 +/− 0.011
2 h Δ OD ([5]; PN1312 (cfa1), S36 medium, 30° C, anaerobic): 0.5
inhibited for growth ([5]; PN1312 (cfa1 overexpression)): 59%
% Growth inhibition (L. plantarum PN2001; 2.25% isobutanol, MRS medium): 32%
μ (2.25% isobutanol) (L. plantarum PN2001; [8]): 0.32 h⁻¹
inhibition at 2.25 % strength [6]: 50%
inhibition at 2.5 % strength [6]: 66%
inhibition at 2.75 % strength [6]: 89%
inhibition at 3 % strength [6]: 100%
inhibition at 3.2 % strength [6]: 100%
growth in the presence of isobutanol (FIG. 1B) ([7]; PN2014, 3% isobutanol): did not grow
PN2014 (control plasmid) μ ([7]; isobutanol 2.25% w/v): 0.170 h⁻¹
PN2014 (control plasmid) μ ([7]; isobutanol 2.5% w/v): 0.118 h⁻¹
PN2014 (control plasmid) μ ([7]; isobutanol 2.75% w/v): 0.037 h⁻¹
PN2014 (control plasmid) μ ([7]; isobutanol 3.0% w/v): 0.00 h⁻¹
PN2014 (control plasmid) μ ([7]; isobutanol 3.2% w/v): 0.00 h⁻¹
% Growth inhibition (L. plantarum PN2012; 2.25% isobutanol, MRS medium): 51%
μ (2.25% isobutanol) (L. plantarum PN2012; [8]): 0.20 h⁻¹
% Growth inhibition (L. plantarum PN2010; 2.25% isobutanol, MRS medium): 39%
μ (2.25% isobutanol) (L. plantarum PN2010; [8]): 0.33 h⁻¹

CCC(C)O (stereo not shown) [2-butanol]
PN2001, % Growth inhibition ([2]; 2-butanol 3.5% w/v): 54%
PN2001 (cfa1 plasmid) μ ([2]; 2-butanol 3.5% w/v): 0.132 h⁻¹
PN2001, % Growth inhibition ([2]; 2-butanol 4.0% w/v): 56%
PN2001 (cfa1 plasmid) μ ([2]; 2-butanol 4.0% w/v): 0.125 h⁻¹
PN2001, % Growth inhibition ([2]; 2-butanol 4.25% w/v): 61%
PN2001 (cfa1 plasmid) μ ([2]; 2-butanol 4.25% w/v): 0.111 h⁻¹
PN2001, % Growth inhibition ([2]; 2-butanol 4.5% w/v): 62%
PN2001 (cfa1 plasmid) μ ([2]; 2-butanol 4.5% w/v): 0.108 h⁻¹
PN2001, % Growth inhibition ([2]; 2-butanol 4.75% w/v): 76%
PN2001 (cfa1 plasmid) μ ([2]; 2-butanol 4.75% w/v): 0.068 h⁻¹
PN2001, % Growth inhibition ([2]; 2-butanol 5.0% w/v): 73%
PN2001 (cfa1 plasmid) μ ([2]; 2-butanol 5.0% w/v): 0.078 h⁻¹
PN2014, % Growth inhibition ([7]; 2-butanol 3.5% w/v): 48%
PN2014 (control plasmid) μ ([7]; 2-butanol 3.5% w/v): 0.153 h⁻¹
PN2014, % Growth inhibition ([7]; 2-butanol 4.0% w/v): 59%
PN2014 (control plasmid) μ ([7]; 2-butanol 4.0% w/v): 0.123 h⁻¹
PN2014, % Growth inhibition ([7]; 2-butanol 4.25% w/v): 47%
PN2014 (control plasmid) μ ([7]; 2-butanol 4.25% w/v): 0.158 h⁻¹
PN2014, % Growth inhibition ([7]; 2-butanol 4.5% w/v): 79%
PN2014 (control plasmid) μ ([7]; 2-butanol 4.5% w/v): 0.061 h⁻¹
PN2014, % Growth inhibition ([7]; 2-butanol 4.75% w/v): 89%
PN2014 (control plasmid) μ ([7]; 2-butanol 4.75% w/v): 0.034 h⁻¹
PN2014, % Growth inhibition ([7]; 2-butanol 5.0% w/v): 100%
PN2014 (control plasmid) μ ([7]; 2-butanol 5.0% w/v): 0.00 h⁻¹
